Literature values, collected in patent EP0225997A2, “Use of urea derivatives for preparing a pharmaceutical composition for the treatment of a virus-induced disease” (Die Deutsches Primatenzentrum GmbH, priority 1985, dated 1987).

Test system: HTLV-III
Conditions: Mitsuya et al. Science, 226 page 172-174, 1984

Structure (SMILES): Cc1ccc(C(=O)Nc2ccc(S(=O)(=O)O)c3cc(S(=O)(=O)O)cc(S(=O)(=O)O)c23)cc1NC(=O)c1cccc(NC(=O)Nc2cccc(C(=O)Nc3cc(C(=O)Nc4ccc(S(=O)(=O)O)c5cc(S(=O)(=O)O)cc(S(=O)(=O)O)c45)ccc3C)c2)c1 [suramin]
- HTLV-III replications in culture: reduce HTLV-III replications in culture
